Measured values: patent US9981916B2 (Genentech, Inc., priority 2013, dated 2018)

Biological target: T1, RORc ligand binding domain (Homo sapiens, UniProt P51449)
T1 construct: host or cells: E. coli
T1 sequence (P51449 269-508 limits assumed): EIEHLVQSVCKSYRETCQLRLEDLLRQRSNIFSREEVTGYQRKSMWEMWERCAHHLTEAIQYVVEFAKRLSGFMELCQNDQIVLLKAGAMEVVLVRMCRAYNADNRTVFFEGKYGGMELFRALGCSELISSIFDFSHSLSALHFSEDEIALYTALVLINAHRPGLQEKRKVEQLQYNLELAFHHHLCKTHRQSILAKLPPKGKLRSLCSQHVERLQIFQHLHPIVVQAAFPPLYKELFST
Assay: In vitro RORc ligand binding assay (25-[3H]hydroxycholesterol displacement, filter binding)
Conditions: 6 nM 25-[3H]hydroxycholesterol, 0.6 ug/mL RORc receptor, 3 h at 25° C.
Procedure, shortened: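 Compounds in 5% DMSO, either dose-response or screened at 1 and 10 uM, competed with 6 nM 25-[3H]hydroxycholesterol for 0.6 ug/mL RORc over 3 h at 25° C (HEPES pH 7.4, NaCl, MgCl2, DTT, BSA buffer). Bound tracer was filter-harvested and counted; nonspecific binding came from 1 uM 25-hydroxycholesterol.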

| SMILES | IC50 [µM] |
| --- | --- |
| CC1(C)[C@@H]2CC[C@@]1(C(=O)Nc1ccccc1S(C)(=O)=O)c1nnc(-c3ccccc3F)cc12 [Example 129, (5S,8S)-3-(2-fluorophenyl)-9,9-dimethyl-N-(2-(methylsulfonyl)phenyl)-5,6,7,8-tetrahydro-5,8-methanocinnoline-8-carboxamide] | 1.79 |
| CNC(=O)C1CN(C(=O)[C@@]23CC[C@@H](c4cc(-c5ccccc5F)nnc42)C3(C)C)CCO1 (stereo partly drawn) [Example 180, 4-((5R,8R)-3-(2-fluorophenyl)-9,9-dimethyl-5,6,7,8-tetrahydro-5,8-methanocinnoline-8-carbonyl)-N-methylmorpholine-2-carboxamide] | 3.81 |
| CCN(C(=O)CO)C(C)(C)[C@@]12CC[C@@H](c3cc(-c4c(F)cccc4F)nnc31)C2(C)C [Example 271, N-(2-((5R,8S)-3-(2,6-difluorophenyl)-9,9-dimethyl-5,6,7,8-tetrahydro-5,8-methanocinnolin-8-yl)propan-2-yl)-N-ethyl-2-hydroxyacetamide] | 0.189 |
| COC[C@]12CC[C@H](c3cc(-c4c(F)cccc4Cl)nnc31)C2(C)C [Example 24, (5S,8S)-3-(2-chloro-6-fluorophenyl)-8-(methoxymethyl)-9,9-dimethyl-5,6,7,8-tetrahydro-5,8-methanocinnoline] | 0.045 |
| Cc1noc([C@@]23CC[C@@H](c4cc(-c5c(F)cccc5F)nnc42)C3(C)C)n1 [Example 64, (5R,8R)-3-(2,6-difluorophenyl)-9,9-dimethyl-8-(3-methyl-1,2,4-oxadiazol-5-yl)-5,6,7,8-tetrahydro-5,8-methanocinnoline] | 0.067 |
| CC1(C)[C@H]2CC[C@]1(N(CC(F)F)C(=O)CO)c1nnc(-c3c(F)cccc3F)cc12 [Example 322, N-(2,2-difluoroethyl)-N-((5R,8R)-3-(2,6-difluorophenyl)-9,9-dimethyl-5,6,7,8-tetrahydro-5,8-methanocinnolin-8-yl)-2-hydroxyacetamide] | 1.46 |
| CC1(C)[C@@H]2CC[C@@]1(CC#N)c1nnc(-c3ccccc3F)cc12 [Example 16] | 1.55 |
| CC(=O)Nc1ccc(-c2cc3c(nn2)[C@@]2(C)CC[C@@H]3C2(C)C)cn1 [Example 95, N-{5-[(5R,8S)-8,9,9-trimethyl-5,6,7,8-tetrahydro-5,8-methanocinnolin-3-yl]pyridin-2-yl}acetamide] | 3.32 |
